Literature values, collected in PMC10615786 (Cell, 2023).

Experiments:
[1] = test system: LRX3; details: modulates salt tolerance
[2] = test system: LRX4; details: modulates salt tolerance
[3] = test system: ROS level; details: general statement, no data or reference printed

Row | Compound | binding to LRX3 [1] | binding to LRX4 [2] | ROS levels in vivo [3]
1 | sRALF23: stigma-expressing RALF peptide (ATRRYISYGALRRNTIPCSRRGASYYNCRRGAQANPYSRGCSAITRCRRS; UniProt Q9LUS7 89-138, looked up) | bind to LRX3 and LRX4 | bind to LRX3 and LRX4 | –
2 | c1ccc2c(c1)[I+]c1ccccc1-2 [DPI] | – | – | lower ROS levels in vivo
